Structures can show the parent of a compound that is named as a salt.
Legend:
Type in all cases: biochemical
CYP3A4 [1] = biological target: T1, CYP3A4 (Homo sapiens, UniProt P08684); assay: IC50 against CYP3A4 by inhibition of testosterone metabolism in human liver microsomes; conditions: 0.1 mg/mL human liver microsomes, 25 μM testosterone, 1 mM NADPH, 6-β-OH-testosterone production, eight minutes; read-out: IC50, μM (HLM, testosterone)
T1 construct: 0.1 mg/mL human liver microsomes; from tissue; host or cells: human liver microsomes
T1 sequence (P08684 whole entry): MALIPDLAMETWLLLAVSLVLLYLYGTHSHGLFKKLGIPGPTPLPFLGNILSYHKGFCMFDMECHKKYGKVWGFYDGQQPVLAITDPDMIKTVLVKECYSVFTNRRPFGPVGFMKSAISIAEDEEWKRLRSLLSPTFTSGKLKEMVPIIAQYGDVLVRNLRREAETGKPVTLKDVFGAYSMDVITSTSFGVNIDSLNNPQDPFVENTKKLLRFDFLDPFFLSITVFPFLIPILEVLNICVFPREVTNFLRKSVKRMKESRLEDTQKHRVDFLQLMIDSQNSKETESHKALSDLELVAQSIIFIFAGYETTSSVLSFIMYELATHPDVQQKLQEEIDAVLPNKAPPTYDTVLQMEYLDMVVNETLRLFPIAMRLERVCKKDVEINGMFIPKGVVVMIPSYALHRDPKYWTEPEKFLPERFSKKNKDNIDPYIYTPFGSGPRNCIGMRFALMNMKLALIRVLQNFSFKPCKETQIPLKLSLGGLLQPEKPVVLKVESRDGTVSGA
Outline: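 Testosterone used as substrate, incubated for eight minutes. 6-β-OH-testosterone formation quantified by LC-MS/MS (MRM) as peak area ratio to internal standard against a metabolite standard curve. IC50 derived from inhibition of this metabolism.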

CYP3A4 [2] = biological target: T1, CYP3A4; assay: IC50 against CYP3A4 by inhibition of midazolam metabolism in human liver microsomes; conditions: 0.1 mg/mL human liver microsomes, 2 μM midazolam, 1 mM NADPH, 1-hydroxymidazolam production, eight minutes; read-out: IC50, μM (HLM, midazolam)
Outline: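 Human liver microsomes (0.1 mg/mL) incubated 8 min with 2 μM midazolam and 1 mM NADPH in 100 mM potassium phosphate, pH 7.4. 1-Hydroxymidazolam quantified by LC-MS/MS (MRM) as peak area ratio to internal standard against a metabolite standard curve.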

[3] = biological target: T2, recombinant CYP3A4-b5 enzyme (Baculosomes®) (Homo sapiens, UniProt P08684); assay: Kiapp against recombinant CYP3A4 enzyme (Baculosomes), BFC substrate; conditions: recombinant CYP3A4-b5 (Invitrogen), 5 uM BFC, 200 uM NADPH, pre-incubation at least 30 minutes, pH 7.0, room temperature
T2 construct: purchased Invitrogen (Carlsbad, Calif.)
T2 sequence (P08684 whole entry): as above
Outline: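 Recombinant CYP3A4-b5 Baculosomes were run in 100 mM sodium phosphate pH 7.0 with 5 mM TCEP and 2% DMF at room temperature, with ~30 min pre-incubation. The reaction was started with NADPH (200 uM) and BFC (5 uM), both final. Kiapp came from initial fluorescence velocities over the first 5 min across inhibitor concentrations.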

[4] = biological target: T3, recombinant CYP3A4+b5 enzyme (Supersomes®) (Homo sapiens, UniProt P08684); assay: Kiapp against recombinant CYP3A4 enzyme (Supersomes), BFC substrate; conditions: recombinant CYP3A4+b5 (BD Biosciences), 5 uM BFC, 200 uM NADPH, pre-incubation at least 30 minutes, pH 7.0, room temperature
T3 construct: purchased BD Biosciences (Woburn, Mass.)
T3 sequence (P08684 2-503 limits assumed): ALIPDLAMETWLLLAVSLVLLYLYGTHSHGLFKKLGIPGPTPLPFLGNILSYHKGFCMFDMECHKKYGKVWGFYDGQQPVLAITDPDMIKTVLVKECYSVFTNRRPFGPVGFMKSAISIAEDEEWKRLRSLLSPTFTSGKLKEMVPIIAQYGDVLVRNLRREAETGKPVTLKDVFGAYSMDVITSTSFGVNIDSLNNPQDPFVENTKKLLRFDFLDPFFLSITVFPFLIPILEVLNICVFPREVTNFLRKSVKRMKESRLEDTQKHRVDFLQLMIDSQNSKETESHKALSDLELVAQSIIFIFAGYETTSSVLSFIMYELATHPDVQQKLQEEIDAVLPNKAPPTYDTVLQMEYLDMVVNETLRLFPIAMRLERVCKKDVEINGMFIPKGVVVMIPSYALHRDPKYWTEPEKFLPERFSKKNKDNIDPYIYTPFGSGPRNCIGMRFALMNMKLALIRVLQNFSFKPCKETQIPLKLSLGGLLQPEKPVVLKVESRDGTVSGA
Experimental: 1. Determination of Compound Kiapp
A determination of the Kiapp of the compounds of the invention against recombinant CYP3A4 enzyme was performed as follows. The assay was performed in a 100 mM sodium phosphate buffer pH 7.0, 5 mM TCEP and containing 2% dimethylformamide (final concentration) upon addition of substrate and inhibitor. A typical reaction for the determination of Kiapp values was carried at room temperature in a solid black Costar u-bottom 96-well polypropylene plate. In each well, recombinant CYP3A4 enzyme (5.5 nM or 8 nM, final concentration depending on the commercial source of the enzyme) was pre-incubated in the presence of the inhibitor for at least 30 minutes in the assay buffer. When pre-incubation was completed (˜30 min), the reaction was initiated by adding NADPH (200 uM, final concentration), and 7-benzyloxy-4-(trifluoromethyl)-coumarin (BFC) (5 uM, final concentration). The oxidation of the coumarin substrate was recorded by a 96-well plate reader POLARstar (BMG LABTECH, Offenburg, Germany).
The initial reaction velocities were measured during the first 5 min of the reaction when the release of the fluorescent product is linear with time, in the absence and in the presence of various concentrations of inhibitors. For non-partial & partial inhibitors, the Kiapp values were determined by using the equation for tight-binding inhibitor developed by Morrison, J F (Morrison J F. Biochim Biophys Acta. 1969, 185: 269-86) and by Szedlaseck S E et al. (Szedlascek, S. E., Ostafe, V., Serban, M., and Vlad, M. O. Biochem. J. 1988, 254:311-312), respectively.
The fluorescent substrate BFC was purchased from Sigma (St Louis, Mo.). Two commercial sources of recombinant enzymes were used in this study: recombinant CYP3A4-b5 enzyme (Baculosomes®) was purchased from Invitrogen (Carlsbad, Calif.) and the recombinant CYP3A4+b5 enzyme (Supersomes®) was purchased from BD Biosciences (Woburn, Mass.).

| Structure (SMILES) | IC50 (CYP3A4 [1]) [µM] | IC50 (CYP3A4 [2]) [µM] | Ki [3] [µM] | Ki [4] [µM] |
| --- | --- | --- | --- | --- |
| CC(=O)NC(C)(C)CNC(=O)Cn1nc(-c2ccncc2)cc1Cc1ccc(F)cc1 [Example 71, N-[2-(acetylamino)-2-methylpropyl]-2-[5-(4-fluorobenzyl)-3-pyridin-4-yl-1H-pyrazol-1-yl]acetamide] | 0.035 | 0.034 | 0.0599 | 0.0237 |
| O=C(Cn1nc(-c2ccncc2)cc1Cc1ccc(F)cc1)N1CCC(N2CCOC2=O)CC1 [Example 118, 3-(1-{[5-(4-fluorobenzyl)-3-pyridin-4-yl-1H-pyrazol-1-yl]acetyl}piperidin-4-yl)-1,3-oxazolidin-2-one] | 0.013 | 0.00837 | 0.0442 | 0.0065 |
| CC(C)NC(=O)NC1CCN(C(=O)Cn2nc(-c3ccncc3)cc2Cc2ccc(F)cc2)CC1 [Example 17, N-(1-{[5-(4-fluorobenzyl)-3-pyridin-4-yl-1H-pyrazol-1-yl]acetyl}piperidin-4-yl)-N′-isopropylurea] | 0.035 | 0.0115 | 0.0667 | 0.0231 |
| CS(=O)(=O)NC1CCN(C(=O)Cn2nc(-c3ccncc3)cc2Cc2ccc(F)cc2)CC1 [Example 19, N-(1-{2-[5-(4-fluorobenzyl)-3-pyridin-4-yl-1H-pyrazol-1-yl]acetyl}piperidin-4-yl)methanesulfonamide] | 0.033 | 0.0138 | 0.128 | 0.0057 |
| CS(=O)(=O)NC1CCN(C(=O)Cn2nc(-c3c[nH]cn3)cc2Cc2ccc(F)cc2)CC1 [Example 119, N-(1-{2-[5-(4-fluorobenzyl)-3-(1H-imidazol-4-yl)-1H-pyrazol-1-yl]acetyl}piperidin-4-yl)methanesulfonamide] | > 0.75 | 0.167 | 0.314 | 0.166 |
| CS(=O)(=O)C1CCN(C(=O)Cn2nc(-c3ccncc3)cc2Cc2ccc(F)cc2)C1 (stereo not shown) [Example 132, 4-[5-(4-fluorobenzyl)-1-{2-[3-(methylsulfonyl)-pyrrolidin-1-yl]-2-oxoethyl}-1H-pyrazol-3-yl]pyridine] | 0.04 | 0.023 | 0.0996 | 0.0716 |
| O=C(Cn1nc(-c2ccncc2)cc1Cc1ccc(F)cc1)N1CCC(N2CCCS2(=O)=O)CC1 [Example 120, 4-[1-{2-[4-(1,1-dioxidoisothiazolidin-2-yl)piperidin-1-yl]-2-oxoethyl}-5-(4-fluorobenzyl)-1H-pyrazol-3-yl]pyridine] | 0.027 | 0.017 | 0.003 | 0.0068 |
| CC(=O)N(C)C1CCN(C(=O)Cn2nc(-c3c[nH]cn3)cc2Cc2ccc(F)cc2)CC1 [Example 122, N-(1-{[5-(4-fluorobenzyl)-3-(1H-imidazol-4-yl)-1H-pyrazol-1-yl]acetyl}piperidin-4-yl)-N-methylacetamide] | > 0.75 | 0.62 | 0.482 | 0.178 |
| CC(C)NC(=O)N(C)C1CCN(C(=O)Cn2nc(-c3ccncc3)cc2Cc2ccc(F)cc2)CC1 [Example 16, N-(1-{[5-(4-fluorobenzyl)-3-pyridin-4-yl-1H-pyrazol-1-yl]acetyl}piperidin-4-yl)-N′-isopropyl-N-methylurea] | 0.016 | 0.00707 | 0.0369 | 0.0139 |
| CS(=O)(=O)C1CCN(C(=O)Cn2nc(-c3ccncc3)cc2Cc2ccc(F)cc2)CC1 [Example 6, 4-(5-(4-fluorobenzyl)-1-{2-[4-(methylsulfonyl)piperidin-1-yl]-2-oxoethyl}-1H-pyrazol-3-yl)pyridine] | 0.024 | 0.0218 | 0.0237 | 0.0118 |
| CS(=O)(=O)NC1CN(C(=O)Cn2nc(-c3ccncc3)cc2Cc2ccc(F)cc2)C1 [Example 125, N-(1-{2-[5-(4-fluorobenzyl)-3-pyridin-4-yl-1H-pyrazol-1-yl]acetyl}azetidin-3-yl)methanesulfonamide] | 0.027 | 0.022 | 0.0666 | 0.00884 |
| CC(=O)NC1CN(C(=O)Cn2nc(-c3ccncc3)cc2Cc2ccc(F)cc2)C1 [Example 127, N-(1-{2-[5-(4-fluorobenzyl)-3-pyridin-4-yl-1H-pyrazol-1-yl]acetyl}azetidin-3-yl)acetamide] | 0.08 | 0.041 | 0.141 | 0.0191 |
| CC(=O)N1CCN(C(=O)Cn2nc(-c3ccncc3)cc2Cc2ccc(F)cc2)CC1 [Example 134, 1-acetyl-4-{[5-(4-fluorobenzyl)-3-pyridin-4-yl-1H-pyrazol-1-yl]acetyl}piperazine] | 0.051 | 0.0169 | 0.131 | 0.0168 |
| CN(C)[C@H]1CCN(C(=O)Cn2nc(-c3ccncc3)cc2Cc2ccc(F)cc2)C1 [Example 73, (3S)-1-{[5-(4-fluorobenzyl)-3-pyridin-4-yl-1H-pyrazol-1-yl]acetyl}-N,N-dimethylpyrrolidin-3-amine] | 0.0435 | 0.018 | 0.211 | 0.0339 |
| O=C(Cn1nc(-c2ccncc2)cc1Cc1ccc(F)cc1)N1CCCC(N2CCOCC2)CC1 (stereo not shown) [Example 4, 1-{[5-(4-fluorobenzyl)-3-pyridin-4-yl-1H-pyrazol-1-yl]acetyl}-4-morpholin-4-ylazepane, maleic acid salt] | 0.057 | 0.023 | 0.0211 | 0.0061 |
| CC(=O)N[C@@H]1CCN(C(=O)Cn2nc(-c3ccncc3)cc2Cc2ccc(F)cc2)C1 [Example 100, N-[(3R)-1-{2-[5-(4-fluorobenzyl)-3-pyridin-4-yl-1H-pyrazol-1-yl]acetyl}pyrrolidin-3-yl]acetamide] | 0.0845 | 0.044 | 0.298 | 0.0225 |
| CNC1CCN(C(=O)Cn2nc(-c3ccncc3)cc2Cc2ccc(F)cc2)CC1 [Example 7, 1-{[5-(4-fluorobenzyl)-3-pyridin-4-yl-1H-pyrazol-1-yl]acetyl}-N-methylpiperidin-4-amine] | 0.105 | 0.073 | 0.196 | 0.033 |
| CC(=O)N(C)C1CCN(C(=O)Cn2nc(-c3ccncc3)cc2Cc2ccc(F)cc2)C1 (stereo not shown) [Example 99, N-(1-{[5-(4-fluorobenzyl)-3-pyridin-4-yl-1H-pyrazol-1-yl]acetyl}pyrrolidin-3-yl)-N-methylacetamide] | 0.064 | 0.032 | 0.248 | 0.0178 |
| O=C(Cn1nc(-c2ccncc2)cc1Cc1ccc(F)cc1)N1CC(N2CCOCC2)C1 [Example 121, 4-(1-{[5-(4-fluorobenzyl)-3-pyridin-4-yl-1H-pyrazol-1-yl]acetyl}azetidin-3-yl)morpholine] | 0.088 | 0.045 | 0.0978 | 0.0136 |
| Fc1ccc(Cc2cc(-c3ccncc3)n[nH]2)cc1 [Example 1, 4-[5-(4-fluorobenzyl)-1H-pyrazol-3-yl]pyridine] | < 0.022 | 0.077 | 0.0557 | 0.0064 |
| O=C(Cn1nc(-c2ccncc2)cc1Cc1ccc(F)cc1)N1CCC(N2CCOCC2)CC1 [Example 137, 4-(1-{[5-(4-fluorobenzyl)-3-pyridin-4-yl-1H-pyrazol-1-yl]acetyl}piperidin-4-yl)morpholine] | 0.031 | 0.0101 | 0.0129 | 0.0036 |
| CNC(=O)N(C)C1CCN(C(=O)Cn2nc(-c3ccncc3)cc2Cc2ccc(F)cc2)C1 (stereo not shown) [Example 129, 1-(1-{[5-(4-fluorobenzyl)-3-pyridin-4-yl-1H-pyrazol-1-yl]acetyl}pyrrolidin-3-yl)-1,3-dimethylurea] | 0.066 | 0.022 | 0.312 | 0.017 |

Reference: patent US7919488B2, “Therapeutic compounds” (Pfizer Inc., priority 2006, dated 2011)
